Experimental data from PubChem BioAssay (NCI).
“And” between values parts separate entries of the source, which are not always exact repeats. Identical values can stand only once.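 Following 48 hours of exposure in 96-well plates, responses at five concentrations were used to interpolate endpoints linearly. GI50: concentration for 50% inhibition of growth. TGI denotes the concentration required for complete inhibition of growth.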

Legend:
Test in all cases: NCI anticancer screen, dose series, 48 h
A549 NSCLC = tested on: A549 NSCLC
BT-549 breast = tested on: BT-549 breast
DU-145 prostate = tested on: DU-145 prostate
HCC-2998 colon = tested on: HCC-2998 colon
M14 melanoma = tested on: M14 melanoma
MALME-3M melanoma = tested on: MALME-3M melanoma
MOLT-4 leukemia = tested on: MOLT-4 leukemia
RPMI-8226 leukemia = tested on: RPMI-8226 leukemia
CCRF-CEM leukemia = tested on: CCRF-CEM leukemia
NCI-H226 lung = tested on: NCI-H226 lung

SMILES	GI50 (A549 NSCLC) [µM]	TGI (A549 NSCLC) [µM]	GI50 (BT-549 breast) [µM]	TGI (BT-549 breast) [µM]	GI50 (DU-145 prostate) [µM]	TGI (DU-145 prostate) [µM]	GI50 (HCC-2998 colon) [µM]	TGI (HCC-2998 colon)	GI50 (M14 melanoma) [µM]	TGI (M14 melanoma) [µM]	GI50 (MALME-3M melanoma) [µM]	TGI (MALME-3M melanoma)	GI50 (MOLT-4 leukemia)	TGI (MOLT-4 leukemia)	GI50 (RPMI-8226 leukemia)	TGI (RPMI-8226 leukemia)	TGI (CCRF-CEM leukemia)	GI50 (CCRF-CEM leukemia)	GI50 (NCI-H226 lung) [µM]	TGI (NCI-H226 lung) [µM]
O=C1NC(=O)C(c2ccccc2)=C1Nc1ccccc1	> 25	> 25	> 25	> 25	> 25	> 25	> 25	> 25 µM	> 25	> 25	> 25	> 25 µM	> 25 µM	> 25 µM	> 25 µM	> 25 µM				
Cn1c2cc([N+](=O)[O-])ccc2c(=O)c2c(O)cc3c(c21)C=CC(C)(C)O3		> 100						> 100 µM		> 100		> 100 µM		> 100 µM		> 100 µM	> 100 µM			
O=C([O-])CCc1ccccc1.O=C([O-])CCc1ccccc1.O=C([O-])CCc1ccccc1.O=C([O-])CCc1ccccc1.[Mo+2].[Mo+2]	> 100	> 100					> 100	> 100 µM	> 100	> 100	> 100	> 100 µM	> 100 µM	> 100 µM	> 100 µM	> 100 µM	> 100 µM	> 100 µM	> 100	> 100
CCC1c2cc3n(c(=O)c2COC1O)Cc1c-3nc2ccccc2c1Cl (stereo not drawn)		> 100						> 100 µM		> 75		> 100 µM		> 73 µM		> 100 µM	> 100 µM			> 100
C=C(COC(C)=O)CC(/C=C(\C)CC/C=C(\C)CO)OC(C)=O (stereo not drawn)		> 100						> 100 µM		> 100				> 100 µM			> 100 µM			> 100
N#Cc1c(-c2ccccc2)cc(-c2cccs2)c(C#N)c1N		> 100						> 100 µM		> 100		> 100 µM		> 100 µM		> 100 µM	> 100 µM			
NC(CO)c1ccc(OCc2ccccc2)cc1 (stereo not drawn)		> 100						> 100 µM		> 100		> 100 µM		> 100 µM		> 100 µM	> 100 µM			> 100
COC(=O)c1nc(C(=O)OC)c2c([nH]c3ccccc32)c1C(=O)OC		> 100						> 100 µM		> 100		> 100 µM		> 100 µM			> 100 µM			> 100
CC(=O)OCC1OC([Se-])C(OC(C)=O)C(OC(C)=O)C1OC(C)=O.N#CCC[PH+](CCC#N)CCC#N.[Au+] (stereo not drawn)	9.09	42.4					12.5	43.4 µM	3.63	18.3	15	48.3 µM	2.75 µM	14.1 µM	3.09 µM	14.4 µM	27.3 µM	3.46 µM	3.73	16.3
CCc1cccc(CC)c1NC(=O)CC1SC(N)=NC1=O (stereo not drawn)		> 100						> 100 µM		> 100		> 100 µM		> 100 µM		> 100 µM	> 100 µM			> 100
C=CCC12CCC(=O)[C@@]1(C)CC=C(O)C2=O (stereo partly drawn)		> 100						> 100 µM		> 100		> 100 µM		> 100 µM		> 100 µM	> 100 µM			> 100
O=c1c(O)cc2c(O)oc3c(=O)c(O)c(O)c4c(O)oc1c2c43		> 100						> 100 µM		> 100		> 100 µM		72.2 µM		> 100 µM	> 100 µM			> 100
Cc1ccc(NC(=O)c2nc(S(C)(=O)=O)oc2-c2ccc(F)cc2)cc1Nc1ccc2ncn(C)c(=O)c2c1	13.9	29.5	1.48	2.86	1.72	3.09	2.54	6.47 µM	1.75	3.72									2.33	5.52
COc1cc(C2C(C(=O)O)=C(COC(C)=O)Oc3cc4c(cc32)OCO4)cc(OC)c1OC(C)=O (stereo not drawn)		> 100								> 100		> 100 µM		> 100 µM		> 100 µM	> 100 µM			
N#Cc1c2ccccc2c2nnc3ccc(C(F)(F)F)cc3n12	26.9	> 100	21	44.6	28	> 100					47.9	> 100 µM	10.4 µM	> 100 µM	29.4 µM	> 100 µM	> 100 µM	71 µM		
Cc1cc2c(cc1C)[n+](=O)c(C(=O)CC(=O)C(=O)Nc1ccccc1C(C)C)c(C)n2[O-]		> 100						> 100 µM		> 100		> 100 µM		> 100 µM		> 100 µM	> 100 µM			> 100
O=C(O)CNCCc1ccccc1		> 100		> 100		> 100				> 100		> 100 µM				> 100 µM	> 100 µM			> 100
O=C(O)c1cn(C2CC2)c2cc(N3CCN(C(=O)Nc4nc(-c5ccc(Br)cc5)cs4)CC3)c(F)cc2c1=O	3.68	> 100			2.05	> 100	2.97	> 100 µM	2.24	> 100	0.853	> 100 µM	0.622 µM	> 100 µM	0.437 µM	> 100 µM	> 100 µM	1.23 µM		
C#CCn1c(=O)c2cccnc2n(CC#C)c1=O		> 100						> 100 µM		> 100		> 100 µM		> 100 µM		> 100 µM	> 100 µM			> 100
C=C1C(=O)c2cc3c(cc2C(c2cc(OC)c(OC)c(OC)c2)[C@@H]1C(=O)O)OCO3 (stereo partly drawn)		> 100						> 100 µM		> 100		> 100 µM		> 100 µM		> 100 µM	> 100 µM			> 100
N#CC(/C(=N/NC(N)=S)C(=O)Nc1cccc(Cl)c1)c1ccccc1 (stereo not drawn)		> 100						> 100 µM		> 100		> 100 µM		> 100 µM		> 100 µM	> 100 µM			> 100

SMILES	GI50 (A549 NSCLC) [µM]	TGI (A549 NSCLC) [µM]	GI50 (BT-549 breast) [µM]	TGI (BT-549 breast) [µM]	GI50 (DU-145 prostate) [µM]	TGI (DU-145 prostate) [µM]	GI50 (HCC-2998 colon) [µM]	TGI (HCC-2998 colon)	GI50 (M14 melanoma) [µM]	TGI (M14 melanoma) [µM]	GI50 (MALME-3M melanoma) [µM]	TGI (MALME-3M melanoma)	GI50 (MOLT-4 leukemia)	TGI (MOLT-4 leukemia)	GI50 (RPMI-8226 leukemia)	TGI (RPMI-8226 leukemia)	TGI (CCRF-CEM leukemia)	GI50 (CCRF-CEM leukemia)	GI50 (NCI-H226 lung) [µM]	TGI (NCI-H226 lung) [µM]
COC1=CC(=O)OC(/C=C(C)/C=C/C2=C(C)CCCC2(C)C)C1 (stereo not drawn)		> 100						> 100 µM		> 100		> 100 µM		> 100 µM			> 100 µM			> 100
CCc1nc2ccccc2c(=O)n1/N=C(\N=Nc1ccc(Cl)cc1)c1ccccc1		98.7						95.6 µM		> 100		90 µM		> 100 µM		> 100 µM	> 100 µM			63.4
Cc1ccc(NC(=O)/C(=N\NC(N)=S)C(C#N)c2ccccc2C)cc1C (stereo not drawn)		> 100						> 100 µM		> 100		> 100 µM		> 100 µM		> 100 µM	> 100 µM			> 100
CCOC(=O)Nc1ccc2c(c1)N(C(=O)CCN(CC)CC)c1ccccc1S2	58.3	125		97.2				32.8 µM and 75.7 µM		48.6	29.1	34.4 µM and 70.3 µM	13.7 µM	71.1 µM and 44.3 µM	13 µM	51 µM and 47.5 µM	> 91.2 µM and 66.9 µM	17 µM		
O=C1C(=C([O-])c2ccccc2)C(=O)c2ccccc21.O=C1C(=C([O-])c2ccccc2)C(=O)c2ccccc21.[Co+2]	> 100	> 100					> 100	> 100 µM	> 100	> 100	40.1	> 100 µM	> 100 µM	> 100 µM	> 100 µM	> 100 µM	> 100 µM	38.6 µM	> 100	> 100
OCCCc1cnco1		> 100						> 100 µM		> 100		> 100 µM		> 100 µM		> 100 µM	> 100 µM			> 100
Cn1c(=O)c2[nH]c(CCCc3ccc([N+](=O)[O-])cc3)nc2n(C)c1=O		> 100		> 100		> 100				> 100		> 100 µM		> 100 µM		> 100 µM				> 100
NC(=O)CCc1ccccc1Oc1nccc(-c2c(-c3ccc(F)cc3)ncn2C2CCNCC2)n1	> 25	> 25	> 25	> 25	> 25	> 25	> 25	> 25 µM	> 25	> 25	> 25	> 25 µM	> 25 µM	> 25 µM	> 25 µM	> 25 µM				
C/C(=N/NC(=S)N1CC2CCC(CC2)C1)c1cnccn1		10.4		16.7		13.8		13.6 µM		1.85		10.3 µM		1.32 µM		4.95 µM				1.33
N#Cc1c2ccccc2c2nnc3ccccc3n12	13.5	36.7	12	45.1	26.8	> 100			14.9	62.4	> 100	> 100 µM	47.1 µM	> 100 µM	> 100 µM	> 100 µM				
O=C(O)c1ccc(Oc2nc3ccccc3s2)cc1		> 100		> 100		> 100				> 100		> 100 µM		> 100 µM		> 100 µM	> 100 µM			> 100
CCN1C(=O)N(CC)C2C1NC(=S)N2/N=C/C=C/c1ccccc1OC (stereo not drawn)	0.0403	> 100	0.0258	38.2			0.0343	16.2 µM	< 0.0184	> 100	0.0599	> 100 µM	0.0427 µM	> 100 µM	0.0431 µM	30.9 µM	> 100 µM	0.0373 µM	0.0458	> 100
Fc1ccc(C2SCc3nc4ccccc4n32)cc1F (stereo not drawn)		> 100						> 100 µM		76.7		> 100 µM		56 µM		36.7 µM	97 µM			
CC(=O)CC(=O)NC=O		> 100						> 100 µM		> 100		> 100 µM		> 100 µM		> 100 µM	> 100 µM			> 100
NC(=S)N/N=C(\CCC(=O)Nc1ccccc1[N+](=O)[O-])CC(=O)c1ccco1		> 100						> 100 µM		> 100		> 100 µM		> 100 µM		> 100 µM	> 100 µM			> 100
O=C(O)CCC1CCc2cccc(OCC(=O)O)c2C1=O (stereo not drawn)		> 100						> 100 µM		> 100				> 100 µM		> 100 µM	> 100 µM			
CS(=N)(=O)CCC(N)P(=O)(O)O (stereo not drawn)		> 100		> 100		> 100		> 100 µM		> 100		> 100 µM		> 100 µM		> 100 µM				> 100
O=C(/C=C/c1nnc2n(Cc3ccccc3)c(=O)c3c4c(sc3n12)CCCC4)c1ccccc1					> 100	> 100	> 100	> 100 µM		> 100	> 100	> 100 µM	0.622 µM and 0.248 µM	0.769 µM	0.177 µM and 0.254 µM	0.817 µM and 0.738 µM	4.69 µM and 0.699 µM	0.328 µM and 0.205 µM		
CC(=O)N(CCN1C(=O)c2ccccc2C1=O)CCN1C(=O)c2ccccc2C1=O		> 100						> 100 µM		> 100				> 100 µM		> 100 µM	> 100 µM			
O=C(N/C=C/C=C/Sc1ccccc1)OCc1ccccc1		59.8						42.8 µM		32.9				> 100 µM		> 100 µM	> 100 µM			41.3
O=[N+]([O-])c1ccc(/C(Cl)=C/c2ccc(/C=C(\Cl)c3ccc([N+](=O)[O-])cc3[N+](=O)[O-])cc2)c([N+](=O)[O-])c1		> 100						> 100 µM		> 100		> 100 µM		> 100 µM		> 100 µM				> 100
